{"source": "patent US12065442B2", "about": "“Tropomyosin receptor kinase (TRK) degradation compounds and methods of use” (Cullgen (Shanghai), Inc., priority 2018, dated 2024)"}
{"test_system": "KM12 cells", "assay": "Cell viability assay (CellTiter-Glo) in KM12 cells", "format": "cell-based", "conditions": "Homo sapiens, 72 h; Table 2; KM12 cell viability, CellTiter-Glo, 3 days; read-out: IC50", "units": {"IC50": "nM"}}
{"smiles": "Cc1ncsc1-c1ccc(CNC(=O)[C@@H]2C[C@@H](O)CN2C(=O)[C@@H](NC(=O)CCCCCC(=O)N2CCN(c3ccc(C(=O)Nc4n[nH]c5ccc(Cc6cc(F)cc(F)c6)cc45)c(NC4CCOCC4)c3)CC2)C(C)(C)C)cc1", "note": "[CPD-047, (2S,4R)-1-((S)-2-(7-(4-(4-((5-(3,5-difluorobenzyl)-1H-indazol-3-yl)carbamoyl)-3-((tetrahydro-2H-pyran-4-yl)amino)phenyl)piperazin-1-yl)-7-oxoheptanamido)-3,3-dimethylbutanoyl)-4-hydroxy-N-(4-(4-methylthiazol-5-yl)benzyl)pyrrolidine-2-carboxamide]", "IC50": 94}
{"smiles": "O=C1CCC(N2C(=O)c3cccc(NCCC(=O)N4CCN(c5cccc(-c6cnc7ccc(N8CCC[C@@H]8c8cccc(F)c8)nn67)n5)CC4)c3C2=O)C(=O)N1", "note": "(stereo partly drawn) [CPD-026, 2-(2,6-Dioxopiperidin-3-yl)-4-((3-(4-(6-(6-((R)-2-(3-fluorophenyl)pyrrolidin-1-yl)imidazo[1,2-b]pyridazin-3-yl)pyridin-2-yl)piperazin-1-yl)-3-oxopropyl)amino)isoindoline-1,3-dione]", "IC50": 82.3}
{"smiles": "O=C(CN1CCN(c2ccc(C(=O)Nc3n[nH]c4ccc(Cc5cc(F)cc(F)c5)cc34)c(NC3CCOCC3)c2)CC1)NCCOCCOCCOCCNc1cccc2c1C(=O)N(C1CCC(=O)NC1=O)C2=O", "note": "(stereo not shown) [CPD-064, N-(5-(3,5-difluorobenzyl)-1H-indazol-3-yl)-4-(4-(14-((2-(2,6-dioxopiperidin-3-yl)-1,3-dioxoisoindolin-4-yl)amino)-2-oxo-6,9,12-trioxa-3-azatetradecyl)piperazin-1-yl)-2-((tetrahydro-2H-pyran-4-yl)amino)benzamide]", "IC50": 14.9}
{"smiles": "O=C1CCC(N2C(=O)c3cccc(NCCCCCCCC(=O)N4CCN(c5ccc(C(=O)Nc6n[nH]c7ccc(Cc8cc(F)cc(F)c8)cc67)c(NC6CCOCC6)c5)CC4)c3C2=O)C(=O)N1", "note": "(stereo not shown) [CPD-052, N-(5-(3,5-difluorobenzyl)-1H-indazol-3-yl)-4-(4-(8-((2-(2,6-dioxopiperidin-3-yl)-1,3-dioxoisoindolin-4-yl)amino)octanoyl)piperazin-1-yl)-2-((tetrahydro-2H-pyran-4-yl)amino)benzamide]", "IC50": 60}
{"smiles": "O=C1CCC(N2C(=O)c3cccc(NCCOCCOCCOCCOCCOCCC(=O)N4CCN(c5cccc(-c6cnc7ccc(N8CCC[C@@H]8c8cccc(F)c8)nn67)n5)CC4)c3C2=O)C(=O)N1", "note": "(stereo partly drawn) [CPD-025, 2-(2,6-Dioxopiperidin-3-yl)-4-((18-(4-(6-(6-((R)-2-(3-fluorophenyl)pyrrolidin-1-yl)imidazo[1,2-b]pyridazin-3-yl)pyridin-2-yl)piperazin-1-yl)-18-oxo-3,6,9,12,15-pentaoxaoctadecyl)amino)isoindoline-1,3-dione]", "IC50": 16.7}
{"smiles": "Cc1ncsc1-c1ccc(CNC(=O)[C@@H]2C[C@@H](O)CN2C(=O)[C@@H](NC(=O)CCC(=O)N2CCN(c3ccc(C(=O)Nc4n[nH]c5ccc(Cc6cc(F)cc(F)c6)cc45)c(NC4CCOCC4)c3)CC2)C(C)(C)C)cc1", "note": "[CPD-046, (2S,4R)-1-((S)-2-(4-(4-(4-((5-(3,5-Difluorobenzyl)-1H-indazol-3-yl)carbamoyl)-3-((tetrahydro-2H-pyran-4-yl)amino)phenyl)piperazin-1-yl)-4-oxobutanamido)-3,3-dimethylbutanoyl)-4-hydroxy-N-(4-(4-methylthiazol-5-yl)benzyl)pyrrolidine-2-carboxamide]", "IC50": 700}
{"test_system": "KM12 cells", "assay": "Cell viability assay (CellTiter-Glo) in KM12 cells", "format": "cell-based", "conditions": "Homo sapiens, 72 h; Table 3; KM12 cell viability, CellTiter-Glo, 3 days; read-out: IC50", "units": {"IC50": "nM"}}
{"smiles": "O=C1CCC(N2C(=O)c3ccc(C#CCN4CCN(c5cccc(-c6cnc7ccc(N8CCC[C@@H]8c8cccc(F)c8)nn67)n5)CC4)cc3C2=O)C(=O)N1", "note": "(stereo partly drawn) [TR-183, 2-(2,6-Dioxopiperidin-3-yl)-5-(3-(4-(6-(6-((R)-2-(3-fluorophenyl)pyrrolidin-1-yl)imidazo[1,2-b]pyridazin-3-yl)pyridin-2-yl)piperazin-1-yl)prop-1-yn-1-yl)isoindoline-1,3-dione]", "IC50": 129}
{"smiles": "O=C1CCC(N2C(=O)c3ccc(NCCCCC(=O)N4CCN(c5ccc(C(=O)Nc6n[nH]c7ccc(Cc8cc(F)cc(F)c8)cc67)c(NC6CCOCC6)c5)CC4)cc3C2=O)C(=O)N1", "note": "(stereo not shown) [TR-142, N-(5-(3,5-Difluorobenzyl)-1H-indazol-3-yl)-4-(4-(5-((2-(2,6-dioxopiperidin-3-yl)-1,3-dioxoisoindolin-5-yl)amino)pentanoyl)piperazin-1-yl)-2-((tetrahydro-2H-pyran-4-yl)amino)benzamide]", "IC50": 3.4}
{"smiles": "O=C1CCC(N2Cc3cc(CCCN4CCN(c5cccc(-c6cnc7ccc(N8CCC[C@@H]8c8cccc(F)c8)nn67)n5)CC4)ccc3C2=O)C(=O)N1", "note": "(stereo partly drawn) [TR-186, 3-(5-(3-(4-(6-(6-((R)-2-(3-fluorophenyl)pyrrolidin-1-yl)imidazo[1,2-b]pyridazin-3-yl)pyridin-2-yl)piperazin-1-yl)propyl)-1-oxoisoindolin-2-yl)piperidine-2,6-dione]", "IC50": 5.8}
{"smiles": "O=C1CCC(N2C(=O)c3ccc(NCCCCCCCC(=O)N4CCN(c5cccc(-c6cnc7ccc(N8CCC[C@@H]8c8cccc(F)c8)nn67)n5)CC4)cc3C2=O)C(=O)N1", "note": "(stereo partly drawn) [TR-118, 2-(2,6-Dioxopiperidin-3-yl)-5-((8-(4-(6-(6-((R)-2-(3-fluorophenyl)pyrrolidin-1-yl)imidazo[1,2-b]pyridazin-3-yl)pyridin-2-yl)piperazin-1-yl)-8-oxooctyl)amino)isoindoline-1,3-dione]", "IC50": 6.3}
{"smiles": "O=C(CN1CCN(c2cccc(-c3cnc4ccc(N5CCC[C@@H]5c5cccc(F)c5)nn34)n2)CC1)NCCCNc1cccc2c1C(=O)N(C1CCC(=O)NC1=O)C2=O", "note": "(stereo partly drawn) [TR-109, N-(3-((2-(2,6-dioxopiperidin-3-yl)-1,3-dioxoisoindolin-4-yl)amino)propyl)-2-(4-(6-(6-((R)-2-(3-fluorophenyl)pyrrolidin-1-yl)imidazo[1,2-b]pyridazin-3-yl)pyridin-2-yl)piperazin-1-yl)acetamide]", "IC50": 3.6}
{"smiles": "O=C(CN1CCN(c2cccc(-c3cnc4ccc(N5CCC[C@@H]5c5cccc(F)c5)nn34)n2)CC1)NCCOCCNc1ccc2c(c1)C(=O)N(C1CCC(=O)NC1=O)C2=O", "note": "(stereo partly drawn) [TR-135, N-(2-(2-((2-(2,6-dioxopiperidin-3-yl)-1,3-dioxoisoindolin-5-yl)amino)ethoxy)ethyl)-2-(4-(6-(6-((R)-2-(3-fluorophenyl)pyrrolidin-1-yl)imidazo[1,2-b]pyridazin-3-yl)pyridin-2-yl)piperazin-1-yl)acetamide]", "IC50": 0.9}
{"smiles": "O=C(CN1CCN(c2ccc(C(=O)Nc3n[nH]c4ccc(Cc5cc(F)cc(F)c5)cc34)c(NC3CCOCC3)c2)CC1)NCCOCCNc1ccc2c(c1)C(=O)N(C1CCC(=O)NC1=O)C2=O", "note": "(stereo not shown) [TR-161, N-(5-(3,5-Difluorobenzyl)-1H-indazol-3-yl)-4-(4-(2-((2-(2-((2-(2,6-dioxopiperidin-3-yl)-1,3-dioxoisoindolin-5-yl)amino)ethoxy)ethyl)amino)-2-oxoethyl)piperazin-1-yl)-2-((tetrahydro-2H-pyran-4-yl)amino)benzamide]", "IC50": 4.7}
{"smiles": "O=C(CN1CCN(c2cccc(-c3cnc4ccc(N5CCC[C@@H]5c5cccc(F)c5)nn34)n2)CC1)NCCOCCOCCOCCOCCNc1ccc2c(c1)C(=O)N(C1CCC(=O)NC1=O)C2=O", "note": "(stereo partly drawn) [TR-125, N-(14-((2-(2,6-dioxopiperidin-3-yl)-1,3-dioxoisoindolin-5-yl)amino)-3,6,9,12-tetraoxatetradecyl)-2-(4-(6-(6-((R)-2-(3-fluorophenyl)pyrrolidin-1-yl)imidazo[1,2-b]pyridazin-3-yl)pyridin-2-yl)piperazin-1-yl)acetamide]", "IC50": 2.8}
{"smiles": "O=C1CCC(N2C(=O)c3ccc(NCCOCCOCCOCCC(=O)N4CCN(c5cccc(-c6cnc7ccc(N8CCC[C@@H]8c8cccc(F)c8)nn67)n5)CC4)cc3C2=O)C(=O)N1", "note": "(stereo partly drawn) [TR-114, 2-(2,6-Dioxopiperidin-3-yl)-5-((2-(2-(2-(3-(4-(6-(6-((R)-2-(3-fluorophenyl)pyrrolidin-1-yl)imidazo[1,2-b]pyridazin-3-yl)pyridin-2-yl)piperazin-1-yl)-3-oxopropoxy)ethoxy)ethoxy)ethyl)amino)isoindoline-1,3-dione]", "IC50": 16.9}
{"test_system": "KM12 cells", "assay": "Cell viability assay (CellTiter-Glo) in KM12 cells", "format": "cell-based", "conditions": "Homo sapiens, 72 h; Table 4; KM12 cell viability, CellTiter-Glo, 3 days; read-out: IC50", "units": {"IC50": "nM"}}
{"smiles": "O=C1CCC(N2C(=O)Cc3c(NCCN4CCN(c5cccc(-c6cnc7ccc(N8CCC[C@@H]8c8cccc(F)c8)nn67)n5)CC4)cccc32)C(=O)N1", "note": "(stereo partly drawn) [TR-236, 3-(4-((2-(4-(6-(6-((R)-2-(3-Fluorophenyl)pyrrolidin-1-yl)imidazo[1,2-b]pyridazin-3-yl)pyridin-2-yl)piperazin-1-yl)ethyl)amino)-2-oxoindolin-1-yl)piperidine-2,6-dione]", "IC50": 99}
{"smiles": "Cn1c(=O)n(C2CCC(=O)NC2=O)c2cccc(NCCN3CCN(c4cccc(-c5cnc6ccc(N7CCC[C@@H]7c7cccc(F)c7)nn56)n4)CC3)c21", "note": "(stereo partly drawn) [TR-216, 3-[4-[2-[4-[6-[6-[(2R)-2-(3-Fluorophenyl)pyrrolidin-1-yl]imidazo[1,2-b]pyridazin-3-yl]-2-pyridyl]piperazin-1-yl]ethylamino]-3-methyl-2-oxo-benzimidazol-1-yl]piperidine-2,6-dione]", "IC50": 3.6}
{"smiles": "COc1ccc(CN(CCN2CCN(c3cccc(-c4cnc5ccc(N6CCC[C@@H]6c6cccc(F)c6)nn45)n3)CC2)c2ccc3c(c2)C(=O)N(C2CCC(=O)NC2=O)C3=O)cc1", "note": "(stereo partly drawn) [TR-214, 2-(2,6-Dioxo-3-piperidyl)-5-(2-(4-(6-(6-((2R)-2-(3-fluorophenyl)pyrrolidin-1-yl)imidazo[1,2-b]pyridazin-3-yl)-2-pyridyl)piperazin-1-yl)ethyl-((4-methoxyphenyl)methyl)amino)isoindoline-1,3-dione]", "IC50": 2.7}
{"smiles": "O=C1CCC(N2Cc3cc(NCC4CN(c5cccc(-c6cnc7ccc(N8CCC[C@@H]8c8cccc(F)c8)nn67)n5)C4)ccc3C2=O)C(=O)N1", "note": "(stereo partly drawn) [TR-210, 3-(5-(((1-(6-(6-((R)-2-(3-Fluorophenyl)pyrrolidin-1-yl)imidazo[1,2-b]pyridazin-3-yl)pyridin-2-yl)azetidin-3-yl)methyl)amino)-1-oxoisoindolin-2-yl)piperidine-2,6-dione]", "IC50": 14}
